The source of these data is patent US9809582B2, “Aminoester derivatives” (CHIESI FARMACEUTICI S.p.A., priority 2015, dated 2017).

Broadly, the IC50 is the midpoint of a concentration-inhibition curve.

In one assay the target is Human M3 receptor (Homo sapiens (Human), UniProt P20309). Kind of assay: M3 receptor radioligand binding assay. The conditions noted are these: M3 IC50 Activity. As to the method:
M3 Receptor Radioligand Binding Assay:
The assay is carried out in 96-well polypropylene plates in a volume of 250 μl. […] The final assay concentration of DMSO is 0.5% (v/v). The plates are sealed and incubated for 2 h at room temperature on an orbital shaker (slow speed). Membranes are harvested onto 96-well unifilter GF/C filter plates pre-treated with 0.5% polyethyleneimine (v/v), using a filter manifold, washed four times with […] of assay buffer. The plates are dried before addition of 50 μl of microscint-0, sealed then read in a Trilux Microbeta scintillation counter. IC50 values are determined from competition curves using a non-linear curve fitting program. Ki values are calculated from IC50 values by the Cheng and Prusoff equation.

In a further assay the target is Human recombinant PDE4B2 (Homo sapiens (Human), UniProt Q07343). Kind of assay: PDE4B2 HTRF assay. In kind it is biochemical. The protocol:
PDE4B2 activity is detected using the LANCE Ultra cAMP homogeneous time resolved fluorescence resonance energy transfer (TR-FRET) assay from Perkin Elmer. The assay is based on the competition between the europium (Eu) chelate-labeled cAMP tracer and sample cAMP for binding sites on cAMP-specific monoclonal antibodies (mAb) labelled with the ULight™ dye. The assay is carried out in 384-well low volume plates in a volume of 10 μl. Human recombinant PDE4B2 (80 pM) is incubated for 2 h with 3 nM cAMP in buffer containing 1×HBSS, 5 mM HEPES, 3 mM MgCl2, 0.1% BSA, pH 7.4 with or without test compounds. The enzymatic reactions are efficiently stopped by the addition of 500 μM IBMX present in the combined Stop/Detection buffer containing europium (Eu) chelate-labeled cAMP tracer and cAMP-specific monoclonal antibodies (mAb) labelled with the ULight™ dye. […] IC50 values are determined from competition curves using a non-linear curve fitting program.

For assay [1] the following is noted: cited from earlier work.
Where [2] appears, read: patients with severe disease, frequent exacerbations and mucus hypersecretion.

Chain of Human M3 receptor (P20309 whole entry): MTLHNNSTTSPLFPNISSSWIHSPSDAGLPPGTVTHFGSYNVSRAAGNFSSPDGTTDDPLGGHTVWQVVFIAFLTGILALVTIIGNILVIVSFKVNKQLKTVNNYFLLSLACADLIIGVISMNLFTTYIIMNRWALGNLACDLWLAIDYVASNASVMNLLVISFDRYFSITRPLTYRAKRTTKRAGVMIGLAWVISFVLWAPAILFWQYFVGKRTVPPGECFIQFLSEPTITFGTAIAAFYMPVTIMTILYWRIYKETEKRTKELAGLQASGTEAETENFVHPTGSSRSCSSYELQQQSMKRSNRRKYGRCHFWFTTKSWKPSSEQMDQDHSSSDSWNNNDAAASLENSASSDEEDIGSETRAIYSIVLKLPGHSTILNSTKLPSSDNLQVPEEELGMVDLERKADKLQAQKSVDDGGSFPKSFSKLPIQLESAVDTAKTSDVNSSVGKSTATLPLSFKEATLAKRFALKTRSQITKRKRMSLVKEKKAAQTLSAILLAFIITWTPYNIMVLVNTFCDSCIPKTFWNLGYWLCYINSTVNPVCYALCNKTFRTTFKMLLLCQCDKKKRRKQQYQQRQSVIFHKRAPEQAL
Chain of Human recombinant PDE4B2 (Q07343 other isoform, or with tags, fused parts or gaps): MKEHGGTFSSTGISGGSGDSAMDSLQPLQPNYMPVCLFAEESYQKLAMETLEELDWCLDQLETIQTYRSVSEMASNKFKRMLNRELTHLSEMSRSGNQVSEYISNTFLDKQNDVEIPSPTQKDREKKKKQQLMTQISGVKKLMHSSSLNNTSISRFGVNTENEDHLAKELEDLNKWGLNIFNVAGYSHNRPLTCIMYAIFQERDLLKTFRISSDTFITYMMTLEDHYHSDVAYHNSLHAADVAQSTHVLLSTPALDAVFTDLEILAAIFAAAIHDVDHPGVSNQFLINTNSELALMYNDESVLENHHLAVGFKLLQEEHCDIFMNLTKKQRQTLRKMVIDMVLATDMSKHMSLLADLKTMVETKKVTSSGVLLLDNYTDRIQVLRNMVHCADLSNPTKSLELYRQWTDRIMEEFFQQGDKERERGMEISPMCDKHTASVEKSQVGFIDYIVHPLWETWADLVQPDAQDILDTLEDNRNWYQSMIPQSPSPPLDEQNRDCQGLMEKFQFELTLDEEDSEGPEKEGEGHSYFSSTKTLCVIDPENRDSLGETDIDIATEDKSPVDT

Regarding `COc1ccc([C@H](Cc2c(Cl)c[n+]([O-])cc2Cl)OC(=O)c2ccc(CN3CCC(C(=O)O[C@H]4CN5CCC4CC5)(c4ccccc4)CC3)cc2)cc1OC` [Example 11, [(3R)-quinuclidin-3-yl]-1-[[4-[(1S)-2-(3,5-dichloro-1-oxido-pyridin-1-ium-4-yl)-1-(3,4-dimethoxyphenyl)ethoxy]-carbonylphenyl]methyl]-4-phenyl-piperidine-4-carboxylate], the half-maximal inhibitory concentration (IC50) at Human M3 receptor was 10 to 100 nM; on Human recombinant PDE4B2 it was 1 to 10 nM.

In the case of `O=C(Nc1c(Cl)cncc1Cl)c1ccc(OC(F)F)c(OCC2CC2)c1` [roflumilast], the “reduction of the numbers of neutrophils in sputum” value in assay [1] (COPD patients, oral, given over four weeks) is recorded as 36%. Besides, in assay [1] (setting [2]), the “improvement of FEV 1” value is reported as “approximately 50 mL” and the reduction of exacerbation entry is given as “about 15%”.

As for `COc1ccc([C@H](Cc2c(Cl)c[n+]([O-])cc2Cl)OC(=O)c2ccc(CNC3CC(C(=O)O[C@H]4CN5CCC4CC5)(c4ccccc4)C3)s2)cc1OC` (stereo partly drawn) [Example 33, [(1S)-2-(3,5-dichloro-1-oxido-pyridin-1-ium-4-yl)-1-(3,4-dimethoxyphenyl)ethyl] 5-[[[3-phenyl-3-[(3R)-quinuclidin-3-yl]oxycarbonyl-cyclobutyl]amino]methyl]thiophene-2-carboxylate], the IC50 at Human M3 receptor and on Human recombinant PDE4B2 was 1 to 10 nM each time.
